These results are taken from patent publication US20250282736A1, “SMALL MOLECULE MODULATORS OF HUMAN PREGNANE X RECEPTOR” (ST. JUDE CHILDREN'S RESEARCH HOSPITAL, priority 2022, published 2025).

Data set [1] addresses T1, hPXR (Homo sapiens (Human), UniProt O75469). Nature of the data set: cell-based hPXR antagonistic assay. As to conditions: for inhibition at 10 µM: read-out: Antagonist (% inhibition at 10 μM).
For data set [2], the target named is T1, hPXR. Nature of the data set: cell-based hPXR inverse agonistic assay. As to conditions: for inhibition at 10 µM: read-out: Inverse agonist (% inhibition at 10 μM).
In data set [3] the target is T1, hPXR. Nature of the data set: hPXR binding assay. As to conditions: for inhibition at 10 µM: read-out: Binding (% inhibition at 10 μM).
The target of data set [4] is T1, hPXR. Nature of the data set: cell-based hPXR agonistic assay. As to conditions: for Agonist (% activation at 10 μM): rifampicin at 10 μM as 100% activation, DMSO (0.3%) as 0%.
[5] abbreviates: read-out: Binding (IC50/μM), hPXR binding assay.
Setting [6] is: read-out: Agonist (EC50/μM), cell-based hPXR agonistic assay.

Structures are written as SMILES. Read-outs that look alike come from different tables or passages of the source.

T1 sequence (O75469 whole entry): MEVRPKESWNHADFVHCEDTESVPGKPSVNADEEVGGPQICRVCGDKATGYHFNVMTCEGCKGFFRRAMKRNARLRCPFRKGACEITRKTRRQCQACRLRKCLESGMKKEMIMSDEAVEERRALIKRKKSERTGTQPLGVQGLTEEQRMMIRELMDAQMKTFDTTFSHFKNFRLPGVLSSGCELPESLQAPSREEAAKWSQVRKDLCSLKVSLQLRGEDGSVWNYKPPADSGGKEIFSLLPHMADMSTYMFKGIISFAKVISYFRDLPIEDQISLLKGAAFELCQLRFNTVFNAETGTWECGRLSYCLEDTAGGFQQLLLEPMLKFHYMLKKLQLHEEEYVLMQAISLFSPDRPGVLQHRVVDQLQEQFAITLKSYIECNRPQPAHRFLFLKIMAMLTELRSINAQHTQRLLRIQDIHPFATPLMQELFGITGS

Turning to `COC(=O)c1ccc(NC(=O)c2nnn(-c3cc(OC)ccc3OC)c2C)cc1N1CCCC1` [A22], the figures for the IC50 against hPXR [1], on hPXR [2] and at hPXR [3] were over 30000 nM, 10600 ± 8630 nM and over 30 µM, respectively. Moreover, the inhibition at 10 µM at hPXR [2] was 129%. This compound also displayed an EC50 at hPXR [4] of over 30 µM.

Turning to `CCCCOc1ccc(C(C)(C)C)cc1NC(=O)c1nnn(-c2cc(OC)ccc2F)c1C` [H8], the figures for the IC50 against hPXR [1], on hPXR [2] and at hPXR [3] (setting [5]) were over 30000 nM, over 30000 nM and 0.053 ± 0.036 µM, respectively. Besides, the inhibition at 10 µM on hPXR [3] amounted to 18%. For the same compound, the “Agonist (% activation at 10 μM)” value on hPXR [4] is given as “(48 ± 1)%”. Also, at hPXR [4] (setting [6]), the EC50 is 1.48 ± 0.17 µM.

As to `CCC(CC)Oc1ccc(C(C)(C)C)cc1NC(=O)c1nnn(-c2cc(OC)ccc2OC)c1C` [B31], the values for the IC50 against hPXR [1], at hPXR [2] and on hPXR [3] (setting [5]) were 15 nM, 1.6 nM and 0.0075 ± 0.0011 µM, respectively. The inhibition at 10 µM at hPXR [1] was 105%; on hPXR [2] it was 111%; at hPXR [3] it was 91%. The EC50 on hPXR [4] was over 30 µM.

For `COc1ccc(OC)c(-n2nnc(C(=O)Nc3cccc(N4CCN(C)CC4)c3)c2C)c1` [A15], the IC50 at hPXR [1] is over 30000 nM; at hPXR [2], over 30000 nM; on hPXR [3], over 30 µM. Moreover, on hPXR [4], the EC50 is over 30 µM.

`COc1ccc(-n2nnc(C(=O)Nc3cccc(N4CCCC4)c3)c2C)cc1` [E1, 1-(4-methoxyphenyl)-5-methyl-N-(3-(pyrrolidin-1-yl)phenyl)-1H-1,2,3-triazole-4-carboxamide]: the IC50 is over 30000 nM against hPXR [1], over 30000 nM at hPXR [2] and over 30 µM at hPXR [3]. The same compound returned an EC50 on hPXR [4] of 0.32 ± 0.1 µM. In addition, the “Agonist (% activation at 10 μM)” value at hPXR [4] is reported as “(30 ± 7)%”.

`COc1ccc(OC)c(-n2nnc(C(=O)Nc3ccnc(C(C)(C)C)c3)c2C)c1` [A7]: the values for the IC50 at hPXR [1], on hPXR [2] and at hPXR [3] were over 30000 nM, 10300 ± 3250 nM and over 30 µM, respectively. In addition, the inhibition at 10 µM at hPXR [2] amounted to 80%. Besides, on hPXR [4], the EC50 is over 30 µM.

With `C#CCCCOc1cc(NC(=O)c2nnn(-c3cc(OC)ccc3OC)c2C)cc(C(C)(C)C)c1` [D19], the IC50 was determined as 190 nM at hPXR [1], 32 ± 7 nM at hPXR [2] and 0.024 µM on hPXR [3] (setting [5]). Also, the results for the inhibition at 10 µM at hPXR [1], at hPXR [2] and on hPXR [3] were 107%, 116% and 25%, respectively. The same compound showed an EC50 on hPXR [4] of over 30 µM.

For the compound `COc1ccc(-n2nnc(C(=O)Nc3cccc(C)c3)c2C)cc1` [E8], the IC50 against hPXR [1] was over 30000 nM; on hPXR [2], over 30000 nM; at hPXR [3] it was over 30 µM. For the same compound, the EC50 at hPXR [4] was over 30 µM.

Regarding `COc1ccc(-n2nnc(C(=O)Nc3ccc(N)c(C(C)(C)C)c3)c2C)cc1` [E3, N-(4-amino-3-(tert-butyl)phenyl)-1-(4-methoxyphenyl)-5-methyl-1H-1,2,3-triazole-4-carboxamide], the IC50 was over 30000 nM at hPXR [1], over 30000 nM on hPXR [2] and over 30 µM at hPXR [3]. This compound also registered an EC50 on hPXR [4] of 0.86 ± 0.12 µM. Moreover, the “Agonist (% activation at 10 μM)” value on hPXR [4] is given as “(29 ± 4)%”.

As for `COc1ccc(OC)c(-n2nnc(C(=O)Nc3cc(OCCCC(=O)O)cc(C(C)(C)C)c3)c2C)c1` [D30], the results for the IC50 on hPXR [1], at hPXR [2] and at hPXR [3] (setting [5]) were 920 ± 120 nM, 190 nM and 1.71 ± 0.33 µM, respectively. Besides, the inhibition at 10 µM on hPXR [1] came out at 104%; at hPXR [2], 118%; on hPXR [3] it was 71%. The compound further had an EC50 on hPXR [4] of over 30 µM.

As to `COc1ccc(OC)c(-n2nnc(C(=O)Nc3cc(C(C)(C)C)ccc3OCCOCCOCCOCCO)c2C)c1` [B10], the figures for the IC50 against hPXR [1], at hPXR [2] and on hPXR [3] (setting [5]) were 1920 ± 230 nM, 430 ± 140 nM and 2.34 ± 0.57 µM, respectively. Also, the inhibition at 10 µM at hPXR [1] was determined as 102%; on hPXR [2], 95%; on hPXR [3], 62%. Also, on hPXR [4], the EC50 was over 30 µM.

With `COc1ccc(OC)c(-n2nnc(C(=O)Nc3cc(OC(=O)c4nnn(-c5cc(OC)ccc5OC)c4C)cc(C(C)(C)C)c3)c2C)c1` [D13, 3-(tert-butyl)-5-(1-(2,5-dimethoxyphenyl)-5-methyl-1H-1,2,3-triazole-4-carboxamido)phenyl 1-(2,5-dimethoxyphenyl)-5-methyl-1H-1,2,3-triazole-4-carboxylate], the figures for the IC50 against hPXR [1], on hPXR [2] and on hPXR [3] were 830 ± 110 nM, 150 nM and over 30 µM, respectively. The values for the inhibition at 10 µM on hPXR [1] and at hPXR [2] were 68% and 93%, respectively. Also, at hPXR [4], the EC50 was over 30 µM.

Consider `COc1ccc(C)cc1-n1nnc(C(=O)Nc2cc(C(C)(C)C)cc(C(C)(C)C)c2)c1C` [G4], for which the IC50 was determined as 200 nM against hPXR [1], 74 ± 13 nM on hPXR [2] and 0.1 µM on hPXR [3] (setting [5]). For the same compound, the inhibition at 10 µM worked out at 104% on hPXR [1], 101% on hPXR [2] and 74% at hPXR [3]. The EC50 at hPXR [4] was over 30 µM.

`CCC[C@H](CC)Oc1ccccc1NC(=O)c1nnn(-c2cc(OC)ccc2OC)c1C` [M3, (S)-1-(2,5-Dimethoxyphenyl)-N-(2-(Hexan-3-yloxy)Phenyl)-5-Methyl-1H-1,2,3-Triazole-4-Carboxamide]: the IC50 came out at 33 ± 4 nM against hPXR [1], 3.4 ± 0.3 nM on hPXR [2] and 0.013 ± 0.003 µM on hPXR [3] (setting [5]). Moreover, the figures for the inhibition at 10 µM at hPXR [1], on hPXR [2] and on hPXR [3] were 107%, 106% and 77%, respectively. On hPXR [4], this compound returned an EC50 of over 30 µM.

As to `CCCC(CC)Oc1ccc(C(C)(C)C)cc1NC(=O)c1nnn(-c2ccccc2OC)c1C` (centres unmarked) [I1], the IC50 against hPXR [1] was 31 nM; on hPXR [2], over 30000 nM; on hPXR [3] (setting [5]) it was 0.0062 ± 0.0001 µM. The inhibition at 10 µM at hPXR [1] was found to be 84%; on hPXR [3] it was 89%. At hPXR [4], the EC50 was found to be 0.01 µM. Also, the “Agonist (% activation at 10 μM)” value at hPXR [4] is “(8 ± 2)%”.

Take `COc1ccc(OC)c(-n2nnc(C(=O)Nc3cc(C(C)(C)C)ccc3OC(C)C)c2C)c1` [B12]: the IC50 was found to be 49 ± 10 nM at hPXR [1], 7.4 nM on hPXR [2] and 0.021 ± 0.005 µM at hPXR [3] (setting [5]). Besides, the inhibition at 10 µM at hPXR [1] stood at 107%; on hPXR [2] it was 119%; at hPXR [3], 88%. The compound further returned an EC50 at hPXR [4] of over 30 µM.

With `COc1ccc(OC)c(-n2nnc(C(=O)Nc3cc(C(C)(C)C)ccc3OCC(C)(C)C)c2C)c1` [B29], the IC50 against hPXR [1] is 180 nM; on hPXR [2], 26 nM; at hPXR [3] (setting [5]), 0.0177 ± 0.0031 µM. Also, the inhibition at 10 µM on hPXR [1] was found to be 99%; on hPXR [2], 100%; on hPXR [3] it was 85%. The compound also yielded an EC50 on hPXR [4] of over 30 µM.

With `COc1ccc(OC)c(-n2nnc(C(=O)Nc3cc(C(C)(C)C)ccc3OCCCCCCCCOc3ccc(C(C)(C)C)cc3NC(=O)c3nnn(-c4cc(OC)ccc4OC)c3C)c2C)c1` [B20], the IC50 on hPXR [1] is over 30000 nM; at hPXR [2], over 30000 nM; on hPXR [3] it was over 30 µM. At hPXR [4], this compound showed an EC50 of over 30 µM.

As for `COc1ccc(OC)c(-n2nnc(C(=O)Nc3cc(C(C)(C)C)ccc3NC(C)=O)c2C)c1` [B38], the IC50 against hPXR [1] is over 30000 nM; on hPXR [2] it was over 30000 nM; at hPXR [3] (setting [5]), 3.22 ± 2.29 µM. At hPXR [3], the inhibition at 10 µM is 60%. The “Agonist (% activation at 10 μM)” value on hPXR [4] is reported as “(60 ± 13)%”. Also, the EC50 at hPXR [4] (setting [6]) came to 0.99 ± 0.22 µM.
